Results reported in US20220119868A1, “PROFILING RNA-SMALL MOLECULE BINDING SITES WITH OLIGONUCLEOTIDES” (priority 2018, published 2022).

Assays:
[1] = test system: HCV replication, SGR-Neo-RLuc-JFH1-2A replicon cells established in Huh-7.5; experiment: HCV replication in subgenomic replicon cells (Renilla luciferase); type: cell-based, Hepatitis C virus; settings: Hepatitis C virus, Huh7.5; replicon cells, luciferase activity; read-out: IC50, inhibition of HCV replication
Text: (§1) The compounds bind their cognate loops in the 3′ UTR with mid-nanomolar to low micromolar affinities (Table 1). It was next determined if the identified compounds could inhibit HCV RNA replication in HCV subgenomic replicon cells, in particular SGR-Neo-RLuc-JFH1-2A replicon cells established in Huh-7.5 (human hepatoma cells). In this system, an autonomously replicating viral RNA replicon is used to monitor efficiently RNA replication of the virus in the absence of spread of viral RNA to adjacent cells. This is achieved by replacing the structural proteins required to assembly progeny virions with a drug selectable marker (Neo) and a Renilla luciferase (RLuc) reporter gene. Once this replicon has been delivered to human hepatoma cells and selection with G418 (conferred by Neo selectable marker) has occurred, the expression and Renilla luciferase activity is directly correlated with the level of HCV replication^57.
They were therefore assayed for their ability to inhibit HCV replication using this replicon system, with DMSO vehicle and 2′-C-methyladenosine^17 triphosphate serving as negative and positive controls, respectively.
(§2) Effect of compounds on HCV replication. […] Cytotoxicity assays. […] Oligonucleotide profiling of target engagement in vitro. […] Primers can be found in Table 4. […] Inhibition of kinases. […] . Figure S7C).

RNA motif libraries A-E = experiment: 2DCS: array-immobilized small molecules incubated with RNA motif libraries; type: binding; settings: libraries C-E
Text: (§3) Identification of RNA-binding Small Molecules by 2DCS. […] We have previously validated the secondary structures formed by members of RNA libraries by enzymatic mapping^8, 12, 34. These discrete RNA motifs were selected because they are present in cellular RNAs. Due to the library-versus-library nature of these studies, they represent the largest screens completed to date, probing >52,000,000 interactions. Of the 1,987 compounds probed, 239 bound RNA (12.0%).
A final screen was then completed in which the 91 array-immobilized compounds were incubated with all five RNA motif libraries separately in the presence of oligonucleotide competitors F-J, d(AT)11 and d(GC)11. Oligonucleotides F-J mimic regions common to all library members, restricting binding to the randomized regions. (Note: oligonucleotide J was not used for hairpin selections.) After rigorous washing to remove unbound RNAs, bound RNAs were harvested and identified by RNA-seq. […]
Identification of Privileged RNA Space by RNA-Seq. […] RNA-seq data were then analyzed by High Throughput Structure-Activity Relationships Through Sequencing (HiT-StARTS)^12 to identify the privileged RNA motifs that bind each small molecule. […] Next, the most privileged RNA motif binders and the most discriminated against RNA motifs (non-binders) for each compound selection was analyzed by generating LOGOS from the highest and lowest 0.5% of Zobs scores^37. […]

[2] = test system: RNA library A (5-nucleotide hairpin library); experiment: 2DCS selection with LOGOS analysis; type: binding; settings: 5-nucleotide hairpins
Text: as §3
A final screen was then completed in which the 91 array-immobilized compounds were incubated with all five RNA motif libraries separately in the presence of oligonucleotide competitors F-J, d(AT)11 and d(GC)11. Oligonucleotides F-J mimic regions common to all library members, restricting binding to the randomized regions. (Note: oligonucleotide J was not used for hairpin selections.) After rigorous washing to remove unbound RNAs, bound RNAs were harvested and identified by RNA-seq. By completing selections under conditions of high oligonucleotides stringency (by use of excess competitor oligonucleotides), these studies identified small molecules that bound RNA motifs avidly. A challenge in the small molecule RNA-targeting area has been the development and identification of selective interactions between small molecules and RNAs. In myriad studies, 2DCS has defined selective RNA motif-small molecule interactions with varied affinities^11, 12, 35, 36.
Identification of Privileged RNA Space by RNA-Seq. Using RNA-seq, a large sequencing dataset was obtained for each pool of RNAs that were specifically bound to each small molecule. RNA libraries A, B, C, D, and E had at least 12.1-fold (average: 133.1±111.8), 6.7-fold (average: 80.8±78.7), 9.9-fold (average: 103.5±110.6), 7.2-fold (average: 75.7±65.6), and 6.0-fold (average: 36.3±31.6) coverage for each small molecule selection, respectively, as compared to the number of unique sequences within the corresponding RNA library. It was previously shown that at least 6-fold coverage is required to generate binding landscape maps^12. RNA-seq data were then analyzed by High Throughput Structure-Activity Relationships Through Sequencing (HiT-StARTS)^12 to identify the privileged RNA motifs that bind each small molecule. Briefly, the frequency of occurrence of a selected RNA was compared to the frequency of occurrence of the same RNA from RNA-seq analysis of the starting RNA library to account for biases arising during transcription and RT-PCR. This pooled population comparison affords the parameter Zobs, a metric of statistical confidence. A large, positive Zobs indicates a strong preference for binding the motif while a negative Zobs indicates a strong preference against binding the motif. A Fitness Score is assigned by normalizing the Zobs values to the most statistically significant small molecule-RNA interaction to 100. […] Structure-Activity Relationships (SAR). Next, the most privileged RNA motif binders and the most discriminated against RNA motifs (non-binders) for each compound selection was analyzed by generating LOGOS from the highest and lowest 0.5% of Zobs scores^37. By comparing the LOGOS for related compounds, or DiffLogos, SAR can be defined. Indeed, various hit compounds differ by a single functional group, including compounds A and B (FIG. 5). […] In contrast, the RNA motifs most hindered from binding compounds 1 and 2 (discriminated against) are quite different (FIG. 5B).
Four compounds that share an indolylpyrimidine-2,4-diamine core bound members of A (5-nucleotide hairpin library).
Oligonucleotides. All DNA oligonucleotides were purchased from Integrated DNA Technologies, Inc. (IDT) and used without further purification. RNA oligonucleotide competitors were purchased from Dharmacon and de-protected according to the manufacturer's standard procedure. All oligonucleotide solutions were prepared with NANOpure water. […]

[3] = molecular target: HCV RNA motif 5′CUG3′/3′G_C5′ (SL II); experiment: In solution, fluorescence-based binding affinity assay, HCV RNA motifs; design: species or system Hepatitis C virus
Text: as §1
(§4) where n1 is the size of Population 1 (number of sequencing reads for a given RNA from RNA-seq analysis of the selected library), n2 is the size of Population 2 (number of sequencing reads for the same RNA from RNA-seq analysis of the starting library), p1 is the observed proportion of Population 1 (the number of reads for a given RNA from selected library/total number of reads), and p2 is the observed proportion for Population 2 (the number of reads for the same RNA in the starting library/total number of reads). Generation of Logos and DiffLogos: Zobs corresponding to the highest (enriched) 0.5% and lowest (discriminated against) 0.5% scores were analyzed to generate consensus sequences, or Logos. The resulting list of sequences were converted to position weight matrix (PWM) lists for each compound. “Enriched” and “discriminated” sequences were kept separate using JMP®, Version <13.2.1>. SAS Institute Inc., Cary, N.C., 1989-2007. The R package Difflogo,^16 which is part of Bioconductor, was utilized to create the sequence logos from PWM lists for each compound and visually compare the differences between them. Binding Affinity Measurements. Dissociation constants were determined using an in solution, fluorescence-based assay. […] Serial dilutions (1:2) of the small molecule were then completed in 1× Assay Buffer supplemented with 1 mM MgCl2. The solutions were incubated for 30 min at room temperature, transferred to a 96-well plate, and fluorescence intensity measured on a BioTek-FLx800 plate reader. The change in fluorescence intensity as a function of small molecule concentration was fit to a one site binding model per equation 3: […]
as §2

[4] = molecular target: HCV RNA motif 5′UAG3′/3′A_C5′ (SL I); experiment: as above; design: species or system Hepatitis C virus
Text: as §1, §4, §2

[5] = molecular target: HCV RNA motif 5′GUG3′/3′C_C5′ (SL I and SL III); experiment: as above; design: species or system Hepatitis C virus
Text: as §1, §4, §2

panel of 22 kinases = experiment: In vitro inhibition of a panel of kinases; type: biochemical; settings: 20 μM; panel of 22 kinases

In the case of `C[C@@]1(O)[C@H](O)[C@@H](CO)O[C@H]1n1cnc2c(N)ncnc21` [2′-C-methyladenosine, reference compound], the IC50 [1] is reported as 4.5 ± 0.1 µM.
In the case of `CNc1nc(Nc2ccc(C3=NCCN3)cc2)nc(Nc2ccc(C3=NCCN3)cc2)n1` [Compound 2], the “closing base pair preference (LOGOS)” value (RNA motif libraries A-E) is reported as “potential preference for GU closing base pairs”.
In the case of `Cn1ccc2cc(-c3cc(NCc4nc5ccccc5[nH]4)nc(N)n3)ccc21` [Compound 3], the “nucleotide preference in position 1 (LOGOS)” value [2] is reported as “strong preference for G” and the “nucleotide preference in position 4 (LOGOS)” value [2] is reported as “G>U>>A or C”.
With `COc1cc(Nc2cc(-c3ccc4c(ccn4C)c3)nc(N)n2)cc(OC)c1OC` [Compound 4] the “nucleotide preference in position 1 (LOGOS)” value [2] was “strong preference for G” and the “nucleotide preference in position 4 (LOGOS)” value [2] was “G>C>>A or U”.
For `Cn1ccc2cc(-c3cc(NCc4cccc(C(F)(F)F)c4)nc(N)n3)ccc21` [Compound 5], the “nucleotide preference in position 4 (LOGOS)” value [2] was “G>U>>A or C”.
With `Cn1ccc2cc(-c3cc(NCc4cccnc4)nc(N)n3)ccc21` [Compound 6] the “nucleotide preference in position 4 (LOGOS)” value [2] was “G≈U>>A or C”.
`O=C(Nc1cc(C2=NCCN2)cc(C2=NCCN2)c1)c1ccc(C(=O)Nc2cc(C3=NCCN3)cc(C3=NCCN3)c2)cc1` [Compound 9] was tested, and the Affinity [3] was “N.B”, the Kd [4] was 1.3 ± 0.5 µM and the Affinity [5] was “N.B”. The IC50 [1] was over 100 µM and the “kinases inhibited in the panel” value (panel of 22 kinases) was “No kinases were significantly inhibited”.
In the case of `O=C(Nc1cccc(C2=NCCN2)c1)c1ccc(-c2ccc(C(=O)Nc3cccc(C4=NCCN4)c3)cc2)cc1` [Compound 10], the Kd [3] is reported as 7.1 ± 4.2 µM, the Kd [4] is reported as 0.46 ± 0.14 µM and the Kd [5] is reported as 3.35 ± 0.77 µM. The IC50 [1] was 19 ± 2 µM and the “kinases inhibited in the panel” value (panel of 22 kinases) was “No kinases were significantly inhibited”.
